From US20230234920A1, “Azirine Containing Compounds as Anti-Angiogenesis Agents and a Process for the Preparation Thereof” (COUNCIL OF SCIENTIFIC & INDUSTRIAL RESEARCH, priority 2020, published 2023)

Legend:
[1] = system: HUVECs; test: Wound healing (scratch) migration assay; assay type: cell-based, human; details: 50 ng/mL, positive control
Procedure: FIG. 4 represents In vitro wound closure assay showing effect of Compound 1 migration of HUVECs. (A) ECs were incubated with 2.5% FBS in the presence of VEGF, sunitinib and Compound 1 at the indicated concentrations for 24 h after linear scratched wounds were created in the confluent cells. Post treatment photographs were taken at 0 hr, 12 h and 24 h using an inverted microscope at 10×magnification. (B) Data were quantified using Image J software and graphs were plotted by calculating the % migration of that vehicle treated cells (control). Compound 1 inhibits the wound closure by ECs in a dose dependent manner. The values represent the mean±SEM from (n=3) independent experiments with significant difference compared from control at *p<0.05.
As per previous reports, some anti-angiogenic compounds also show anti-migratory effect by modulating the expression of proteins responsible for blood vessels formation. A Scratch was made to the confluent endothelial cells containing VEGF (50 ng/mL) and sunitinib (50 nM) as a positive and negative control respectively and Compound 1 at 250 nM and 125 nM as a test compound. […] This might contribute to its potent anti-angiogenic effect.
Endothelial cells were grown inside 6-well plate at a confluency rate of 90%. And then with the help of 200 μL tip a straight line scratch was made in the middle of the grown ECs. After giving a gentle wash with 1×PBS, control group received vehicle in 2.5% FBS media. VEGF at 50 ng/mL as a positive control and sunitinib at 50 nM concentration was used as a negative control. Compound 1 at a dose concentration of 250 nM and 125 nM were used onto the wounded cells to observe its anti-migratory effect. After 0 h, 12 h and 24 h of post treatment the wound closure area was observed and micrographed using an inverted microscope (Olympus, Centre Valley, Pa., USA) and were analysed by Image J software. Control well at 100% was used to express inhibition percentage and the assay was performed for three-five times independently.

[2] = system: HUVECs; test: Capillary-like tube formation assay (tubulogenesis); assay type: cell-based, human; details: for IC50: Homo sapiens, HUVEC, endothelial tubule network assay, anti-angiogenic activity, read-out: IC50 value; for tubule formation: 6 h
Procedure: FIG. 2 represents effect of Compound 1 on capillary tube formation of HUVECs. Endothelial cells in Matrigel were incubated with ECM basal medium in the presence of compound 1 at the indicated concentrations for 6 h. Cell viability was assessed by Calcein-AM dye added few min. before the completion of 6 h. then photographs at 10×magnification were taken using an inverted microscope. The tubule length of HUVECs was quantified by Leica QWin software. Tubule network formation is expressed as a percentage of that vehicle (0.1% DMSO) treated cells (control).
FIG. 9 represents effect of racemic mixture (chiral isomer 1-1 and chiral isomer 2-1) of Compound 1 on capillary tube formation of HUVECs. Endothelial cells seeded in matrigel were incubated at the indicated concentrations of compound 1 racemic mixtures (1-1 and 2-1) with ECM basal medium for 6 h. Calcein-AM treatment was added to the ECs few minutes before completion of 6 h and pictures were captured using an inverted microscope at 10×magnification. The tubular structures of HUVECs were measured using Leica QWin software and tubulogenesis was expressed as a % of that vehicle (0.1% DMSO) treated cells (control) well.
HUVEC cells were incubated with or without sunitinib (20 nM) for 6 h at indicated concentrations of chiral isomers of Compound 1 (1-1 and 2-1). Photographs were taken using an inverted microscope at 10×magnification after Calcein-AM treatment to the ECs few minutes before completion of 6 h. The tubule length of HUVECs was quantified by Leica QWin software represented as a % of that vehicle (0.1% DMSO) treated cells (control) well.
To examine the effect of Compound 1 on angiogenesis, capillary tube formation assay was performed on regular or reduced growth factor Matrigel, taking VEGF (50 ng/mL) treated cells as a positive control and sunitinib (50 nM) as a negative control (FIG. 2). HUVECs seeded onto the matrigel with compound 1 at different concentrations of (10 μM, 5 μM, 1 μM, 800 nM, 500 nM, 250 nM, 125 nM, 75 nM, 50 nM, 25 nM and 10 nM) were incubated for six hours.
HUVECs (Human Umbilical Vein Endothelial Cells) were seeded onto the pre-coated matrigel (CORNING; 354230) in 96 wells plate at the rate of 11000 cells/well in incomplete ECM basal medium. Control group received vehicle, VEGF at 50 ng/mL as a positive and sunitinib at 50 nM as a negative control were used. Compound 1 at different dose concentrations (10 μM, 5 μM, 1 μM, 800 nM, 500 nM, 250 nM, 100 nM, 75 nM, 50 nM and 25 nM) were employed on seeded HUVECs in incomplete medium. Post 6 h of incubation Calcein-AM (Invitrogen) was added to all the respective groups and then the tubule pattern was observed and photographs were taken using an inverted fluorescent microscope (DM 6000, Leica Microsystems, USA). Relative tubule lengths were measured using Leica Q-Win software version 3.5.1. (Leica Microsystems, Switzerland).

[3] = system: HCT116 colon tumor; test: HCT116 colon tumor model in nude mice; assay type: in vivo
Procedure: FIG. 12 represents Compound 1 inhibited tumor growth in vivo. Tumor sizes were recorded every alternate day by Vernier caliper measurements and calculated as [4/3*[…]*(length/2)*(width/2)]. (A) Nude mice with induced HCT116 tumor were given vehicle to the control group, sunitinib at (40 mg/kg) as a standard drug given orally and Compound 1 at (25 mg/kg) through IP route for 21 days and tumor regression was calculated for all groups. (B) Nude Mice with induced HCT116 colon tumor were given both, sunitinib and Compound 1 at (25 mg/kg) intra-muscularly for 15 days after attaining a tumor size of 100 mm^3, tumor volume reduction for treated groups were calculated and compared with control. Data are expressed as means±S.E.M. (6 mice/group) with significant difference compared with control at p<0.0001.
HCT 116 (Human colon cancer cell line) cells were trypsinised and the pellet was dissolved in ice chilled 1×PBS. HCT 116 cells suspension to a concentration of (1*10^6) cells in 50 μL PBS solution, were left on ice with occasional agitation. Mice were anaesthetized with ketamine: xylazine (100:10 mg/kg), abdominal side area was shaved and sterilized using 70% ethanol. 50 μL of cell suspension was injected slowly subcutaneously to all the mice. After 2 days, booster dose of tumor cells was injected to all mice as performed previously. The growth of the tumor was measured by using vernier caliper on day 2, 4, 6, 8, 10, 12, 14, 16 18, 20, 23 and presented in the form of tumor volume (mm^3)=[4/3*π*(long axis/2)*(short axis/2)]. After attaining a volume of 100 mm^3 of tumor size, all mice were distributed equally (n=6−8) in 3 groups of controls received vehicle (Olive oil). Sutent (25 mg/kg) as a positive control was given orally and Compound 1 (25 mg/kg) dissolved in olive oil was injected intra-muscularly for 15 days and the tumor size regression was measured on every alternate day as described previously. Post 15 days of treatment, mice from all groups were sacrificed and tumor was excised out and processed further for immunohistochemistry and molecular analysis.

[4] = system: chick CAM; test: CAM (chick chorio-allantoic membrane) assay; assay type: in vivo; details: 2 μM
Procedure: (A) Chick CAM assays were used to observe the effect of Compound 1 on angiogenesis in vivo. 1 mm^2 window was made in 8 days old chicken eggs to expose the CAM, and a gelatin disc ([…]) treated with vehicle (0.1% DMSO), sunitinib and Compound 1 at a indicated concentrations were placed on the CAM surface. Post 4 days of incubation, the discs and associated CAM were photographed and excised out, for hemoglobin estimation by drapkin's reagent. (B) Blood vessel density was calculated and Hb. concentration was measured and representative graph was plotted for the control and treatment group and data are represented as mean±SEM with significant difference from control at *p<0.05, **p<0.01 and ***p<0.001.
The eggs were incubated horizontally for 3 days at 37° C. in a 60% humidified atmosphere, using a hybridization incubator (combi-SV 12) with one hour scheduled rotation. Post 3 days of incubation, 2-3 mL of albumin was aspirated from the acute pole of the egg to create false air sac directly over the CAM. Post fertilization (Day 8), a fine blade was used to make an approximate 0.5 cc square incision on the eggshell under sterile conditions and the eggshell window fragment was removed to access the CAM beneath. A piece of gelatin sponge embedded in Compound 1 (500 nM and 250 nM) and sunitinib (2 μM) individually were placed on the CAM of the chicken embryo and incubated for 12 days. Sterile parafilm tape was used to seal back the window and the eggs were further incubated without the rotation setting. After 12 days of incubation the CAM integration was assessed by visual inspection and photographed with a digital camera (Canon EOS); the CAM membrane along with gelatin sponge were harvested and its hemoglobin (Hb.) estimation was done by Drabkin's method according to the manufacturer's protocol (Sigma, St. Louis, Mo.). Absorbance was measured at 540 nm and hemoglobin concentration was calculated.

Q: With VEGF [reference compound] as the compound, how does the wound closure [1] read?
A: 90%

Q: With `CCOC(=O)C1N=C1CCc1ccc(OC)c(OC)c1` (centres unmarked) [Compound 34, Ethyl 3-(3,4-dimethoxyphenethyl)-2H-azirine-2-carboxylate] as the compound, how does the melting point read?
A: 55 to 57 °C

Q: And the IC50 [2]?
A: 0.25 µM

Q: Which “growth of HCT116 cells xenografts” value ([3]; 25 mg/kg, 15 days) does the source give for Sunitinib Maleate [reference compound] here?
A: powerful inhibitory effect

Q: What about the tumor volume ([3]; 40 mg/kg orally for 21 days, vs vehicle) of the same compound?
A: progressive significant decrease in tumor volume

Q: And the tumor reduction ([3]; in comparison to vehicle treated control group, end of experiment)?
A: 54.58%

Q: And the tubule formation ([2]; 20 nM)?
A: 40%

Q: What about the tubule formation ([2]; 50 nM) of the same compound?
A: 25%

Q: And the hemoglobin content [4]?
A: 100 µg/mL

Q: Which results are given for `CCOC(=O)C1N=C1/C=C/c1ccc(N(C)C)cc1` (centres unmarked) [Compound 46, Ethyl (E)-3-(4-(dimethylamino)styryl)-2H-azirine-2-carboxylate]?
A: melting point: 119 to 121 °C; IC50 [2]: 0.5 µM
